Measured values taken from patent US5763435A, “Sulfate conjugates of ursodeoxycholic acid, and their beneficial use in inflammatory disorders” (priority 1995, dated 1998).

What was measured:
[1] = test system: bile acids secreted in bile; assay: Biliary bile acid composition during i.v. infusion (GC-MS); assay type: in vivo, Sprague-Dawley rats; conditions: for Further hydroxylation (in words): GC-MS of bile
Protocol: Adult male Sprague-Dawley rats (body weight 200-230 g) were anesthetized by an intraperitoneal injection of pentobarbital (Nembutal, 7.5 mg/100 g body weight), and maintained under sedation by additional doses. The right jugular vein and the common bile duct were cannulated using PE-50 polyethylene tubing (Clay-Adams, Parsippany, N.J.). Body temperature was maintained throughout the experiment at 37° C. using a rectal probe and a thermostatically controlled heating pad (Harvard Apparatus Co., Inc., Millis, Mass.). Saline was infused at a rate of 1.0 ml/h using a Harvard pump (Harvard Apparatus Co., Inc.) into the jugular vein for a control period of 2h. After collecting two 10 minute bile samples for base-line analysis, the bile acids were individually infused intravenously (i.v.) for 30 minutes in stepwise increasing doses (0.5, 1.0, and 2.0 μmol/min/100 g body weight). Bile acid solutions were prepared in 3% human albumin in 0.45% saline. Six animals were used for each experiment and bile was collected every 10 minutes into preweighed tubes. At the end of the experiment, blood was obtained by cardiac puncture, and urine was obtained by aspiration of the bladder. All biological specimens were stored at -20° C. This animal study protocol (#1 B 10044) was approved by the Bioethics committee of the Children's Hospital Medical Center (Cincinnati, Ohio).
GC-MS was carried out on either a VG Autospec Q magnetic sector instrument or a Finnigan 4635 quadruple GC-MS-DS instrument housing identical GC columns and operated under the same chromatographic conditions. Electron ionization (70 eV) mass spectra were recorded over the mass range 50 to 1000 Da/e by repetitive scanning of the eluting components.
For the determination of hepatic biotransformation of the infused bile acid, bile collections from the six animal were pooled and biliary bile acids were determined by GC-MS after extraction, solvolysis, hydrolysis, and derivatization. Quantification of bile acids was achieved using GC, by comparing the peak height response of the individual bile acid with the peak height response obtained from the internal standard, nordeoxycholic acid added to the initial sample of bile. Identification of a bile acid was made on the basis of the retention index relative to a homologous series of n-alkanes, referred to as the methylene unit value (MU) and the fragmentation pattern of the mass spectrum was compared with authentic standards. A list of over 100 mass spectra of authentic bile acid standards and retention indices was recently compiled as a reference source (Lawson, A. M., et al, Mass spectrometry of bile acids, The Bile Acids, Vol. 4, Methods and Applications, pp. 167-267 (1988)).

serum liver enzymes = conditions: oral administration; cited from earlier work
[2] = test system: chemically induced colon cancer; conditions: in vivo; cited from earlier work
[3] = Plasma UDCA concentration after oral administration; assay type: in vivo, Sprague-Dawley rats; conditions: read-out: Unconjugated plasma UDCA concentration
Protocol: Male Sprague-Dawley rats (Harlan Sprague-Dawley, Inc., Indianapolis, Ind.), weighing 210-290 g, were maintained on a 12-hour light-dark cycle and fed standard laboratory chow ad libitum for 3 days. The animals were then transferred to metabolic cages in which they were housed individually and fed the same diet. UDCA, UDCA 3-sulfate, UDCA 7-sulfate, and UDCA 3,7-disulfate were administered by gavage at a dose of 250 mg/day for 4 consecutive days. Each group comprised 3-6 rats. Body weights of the animals were measured each day. On day 5, the animals were killed by exsanguination under ether anesthesia. Plasma was collected and frozen at -20° C. […]
In each group, urine from all animals was pooled on the individual days of collection. […] After the addition of nordeoxycholic acid (1 μg), bile acids were quantitatively extracted from portions of urine (3 mL) and plasma (1 mL) using Bond-Elut C18 cartridges. […]
GC-MS analysis was performed using a Finnigan 4635 mass spectrometer (Finnigan Inc., San Jose, Calif.) that housed an identical gas chromatography column operated under the same conditions. Electron ionization (70 eV) mass spectra were recorded over the mass range of 50-800 daltons by repetitive scanning of the eluting components. […]
Data are expressed as mean±SEM or as mean values of all animals when extracts were pooled before analysis. […]

SMILES | Relative % composition in bile: CA ([1]; 20-30 mins) | Relative % composition in bile: CDCA ([1]; 20-30 mins) | Relative % composition in bile: DCA ([1]; 20-30 mins) | Relative % composition in bile: MCA ([1]; 20-30 mins) | Relative % composition in bile: UDCA ([1]; 20-30 mins) | Relative % composition in bile: α-MCA ([1]; 20-30 mins) | Relative % composition in bile: β-MCA ([1]; 20-30 mins) | Relative % composition in bile: CA ([1]; 50-60 mins) | Relative % composition in bile: CDCA ([1]; 50-60 mins) | Relative % composition in bile: DCA ([1]; 50-60 mins) | Relative % composition in bile: MCA ([1]; 50-60 mins) | Relative % composition in bile: UDCA ([1]; 50-60 mins) | Relative % composition in bile: α-MCA ([1]; 50-60 mins) | Relative % composition in bile: β-MCA ([1]; 50-60 mins) | Relative % composition in bile: CA ([1]; 80-90 mins) | Relative % composition in bile: CDCA ([1]; 80-90 mins) | Relative % composition in bile: UDCA ([1]; 80-90 mins) | Relative % composition in bile: α-MCA ([1]; 80-90 mins) | Relative % composition in bile: β-MCA ([1]; 80-90 mins) | Further hydroxylation (in words) [1] | other results
C[C@H](CCC(=O)O)[C@H]1CC[C@H]2[C@@H]3[C@@H](OS(=O)(=O)O)C[C@@H]4C[C@H](O)CC[C@]4(C)[C@H]3CC[C@]12C [UDCA-7S, ursodeoxycholic acid 7-sulfate] | 20.2% | 1.7% | 2.3% | 1.3% | 61.3% | 2.5% | 10.7% | 7.7% | 0.6% | 0.7% | 0.6% | 83.6% | 0.9% | 5.9% | 9.9% | 0.7% | 78.8% | 1.3% | 7.4% | neither UDCA-7S nor UDCA-disulfatewere hydroxylated | Relative % composition in bile: DCA ([1]; 80-90 mins): 1.2%; Relative % composition in bile: MCA ([1]; 80-90 mins): 0.8%
C[C@H](CCC(=O)O)[C@H]1CC[C@H]2[C@@H]3[C@@H](O)C[C@@H]4C[C@H](O)CC[C@]4(C)[C@H]3CC[C@]12C [UDCA, 3 alpha, 7 beta-dihydroxy-5 beta-cholan-24oic acid, reference compound] | 49.0% | 3.0% | 1.0% | 1.0% | 51.9% | 4.3% | 17.2% | 21.4% | 2.5% | 0.5% | 0.5% | 65.9% | 3.9% | 12.6% | 9.8% | 1.5% | 79.5% | 6.4% | 9.9% | metabolized by further hydroxylation, most probably in the side-chain | Serum liver enzymes (in words) (serum liver enzymes): significant improvement in serum liver enzymes; Effect in colon cancer models (in words) [2]: beneficial effects; Relative % composition in bile: others ([1]; 20-30 mins): 14.6%; Relative % composition in bile: others ([1]; 50-60 mins): 13.7%; Relative % composition in bile: DCA ([1]; 80-90 mins): 0.7%; Relative % composition in bile: others ([1]; 80-90 mins): 11.9%; concentration [3]: 4.8 ± 2.2 µM
C[C@H](CCC(=O)O)[C@H]1CC[C@H]2[C@@H]3[C@@H](O)C[C@@H]4C[C@H](OS(=O)(=O)O)CC[C@]4(C)[C@H]3CC[C@]12C [UDCA-3S, ursodeoxycholic acid 3-sulfate] | 36.0% | 4.6% | 2.5% | 4.9% | 33.3% | 6.2% | 12.4% | 14.9% | 1.9% | 1.0% | 1.5% | 70.6% | 2.7% | 7.4% | 18.2% | 2.5% | 67.7% | 3.0% | 5.2% | metabolized by further hydroxylation, most probably in the side-chain | Relative % composition in bile: others ([1]; 20-30 mins): 5.2%; Relative % composition in bile: others ([1]; 50-60 mins): 11.5%; Relative % composition in bile: DCA ([1]; 80-90 mins): 1.3%; Relative % composition in bile: MCA ([1]; 80-90 mins): 2.0%; Relative % composition in bile: others ([1]; 80-90 mins): 11.2%
C[C@H](CCC(=O)O)[C@H]1CC[C@H]2[C@@H]3[C@@H](OS(=O)(=O)O)C[C@@H]4C[C@H](OS(=O)(=O)O)CC[C@]4(C)[C@H]3CC[C@]12C [UDCA-DS, ursodeoxycholic acid 3,7-disulfate] | 24.5% | 2.5% | 2.1% | 3.2% | 54.6% | 3.4% | 9.7% | 15.3% | 0.7% | 1.2% | 2.2% | 70.7% | 2.2% | 6.7% | 10.6% | 0.9% | 79.1% | 2.6% | 6.5% | neither UDCA-7S nor UDCA-disulfatewere hydroxylated | Relative % composition in bile: MCA ([1]; 80-90 mins): 1.4%
